From publication PMC10759609, “A novel PDPN antagonist peptide CY12-RP2 inhibits melanoma growth via Wnt/β-catenin and modulates the immune cells” (Journal of Experimental & Clinical Cancer Research : CR, 2024)
Peptide text beside a SMILES is read from it.

Experiments:
A375 cells [1] = experiment: Colony formation, A375; type: cell-based
A375 cellular spheroid = experiment: 3D spheroid diameter, A375; type: cell-based; conditions: A375 spheroids; 0, 50, 100, 200 μM, 5 days
Protocol: A375 and A875 cells were collected and suspended in Matrigel (Corning) with a density of 1.0 × 10^7 cells per mL. 3D spheroids were fabricate using cell-processing system that have two pumps. One pump was loaded with Matrigel and another with fluorocarbon oil (3 M NOVEC, HFE-7000). The flow rate of Matrigel was 20 μL/min and the fluorocarbon oil rate was 30 μL/min. The 3D spheroids were incubated at 37 °C with 5% CO2 after printing. Culturing medium was DMEM medium supplemented with 10% FBS, and 100 IU of penicillin and […] streptomycin. The medium was changed every 3 days. Afterward, the 3D spheroids were harvested for drug analysis.
Prepared melanoma cells spheroids were plated in 48-well plates. Following incubation for 3 days, the spheroids were exposed to different concentrations (0, 50, 100 and 200 μM) of CY12-RP2, and changes in spheroid diameter were detected after 5 days of treatment. Additionally, melanoma cell spheroids were treated with various concentrations of CY12-RP2 as described previously, and after 72 h, the spheroids were stained for immunofluorescence with caspase 3 primary antibody. The specific experimental procedures refer to the following immunofluorescence analysis. Additionally, we co-cultured peptide-stimulated PBMC with spheroids to determine the tumor-killing ability of activated PBMC.

A375 cells [2] = experiment: Annexin V/PI flow cytometry apoptosis, A375; type: cell-based; conditions: 0, 50, 100, 200 μM, 48 h
Protocol: In this study, cell apoptosis was analyzed by flow cytometry using a PI/FITC-Annexin V Apoptosis Detection Kit (4A Biotech, Beijing, China). Briefly, melanoma cells were collected and washed with pre-chilled PBS, then resuspended with Annexin V staining buffer. Afterward, fluorescein isothiocyanate (FITC)-Annexin V and PI were stained for 5 min at RT, and then immediately detected using a Beckman flow cytometer. To investigate immune cell infiltration of the lung and spleen in the pulmonary metastasis mouse model, the surface and nuclear antigen staining were performed following the experimental procedure. Fluorescence-labeled mAb against CD3, CD25, CD49b, GranzymeB, CD11b, CD86, and CD206 were purchased from BioLegend (BioLegend, San Diego, CA), and CD4, CD8, and Foxp3 from Tonbo. […] Finally, the samples were measured using flow cytometry.
Fig. 3 Biopanning of PDPN antagonist peptides. […] B Immunofluorescence staining was performed to quantify the colocalization of CY12-RP2 and PDPN protein in melanoma cell lines (A375, A875). […] D Suppression efficiency of melanoma cells growth by CY12-RP2 was measured by CCK8 assay at various concentrations for 24, 48 or 72 h, respectively. […] G, H The 3D cellular spheres were treated with the set concentrations of CY12-RP2 for 5 days and cell morphology was assessed (G), relative spheroid diameter was measured (H). […]

[3] = test system: cytokines in mouse plasma; experiment: Plasma cytokines in lung metastasis model (ELISA); type: in vivo, BALB/c mice; conditions: lung metastases model, vs control
Protocol: The levels of major inflammatory cytokines, including TNF-α, IL-1β, IL-2, TGF-β, IFN-γ, and IL-10, were measured using an ELISA kit (Shenzhen Ziker Biological Technology, Shenzen, China). Briefly, culture supernatants of cells and serum of pulmonary metastasis mouse model were respectively collected and added to an antibody pre-coated 96-well plates, and then followed up according to the manufacturer's instructions.
For pulmonary metastasis assays, 6- to 8-week-old female BALB/c mice were administered with 5 × 10^5 B16F10-Luc cells via tail vein to establish an experimental pulmonary metastasis model of melanoma. CY12-RP2 was administered to the mice intravenously at high and low doses (25 mg/kg and 100 mg/kg) every two days, and the mice were sacrificed after 15 days of treatment. Pulmonary metastases were evaluated using bioluminescence imaging on the 2nd, 5th, 10th, 15th and 20th day after B16F10-Luc cells injection. Subsequently, the BALB/c mice were sacrificed, and the organs including the heart, liver, spleen, lung, and kidney were collected and imaged for evaluation of micrometastases. The xenografts and organs were kept in a 4% paraformaldehyde solution for subsequent histological assays.

A375 cells [4] = experiment: Transwell matrigel invasion, A375; type: cell-based; conditions: transwell matrigel, 0, 5, 25 μM, 48 h
Protocol: For invasion assay, matrigel (Corning, New York, USA) was coated on the upper surface of the upper chamber. The upper chamber was filled with DMEM medium containing 2% FBS, while the lower chamber contained a medium supplemented with 20% FBS. In brief, melanoma cells (A375 GFP, A875 GFP, A375 PDPN^−/−, and A875 PDPN^+/+ cells) were seeded in the upper chamber of the transwell plate (Corning, New York, USA) at about 5 × 10^4 cells/well with the medium as described above. For peptide functionality experiments, A375 and A875 cells were seeded in the upper chamber of the transwell plate at a density of 5 × 10^4 cells/well with various peptide concentrations (0 μM, 5 μM, 25 μM). Transwell inserts were fixed using 4% paraformaldehyde after 48 h cell invasion, and crystalline violet was used for staining. The quantities of invading cells were quantified using ImageJ software (NIH).

[5] = test system: liver, heart, spleen, lung and kidney; conditions: mouse, in vivo
Protocol: For histopathological analysis, after BALB/c nude mice were sacrificed, organs (heart, liver, spleen, lung, and kidney) were collected and fixed in 4% paraformaldehyde for 24 h at RT. The fixed organs were then dehydrated and inserted in paraffin, and prepared in 2 µm sections. The prepared sections and experimental procedures were routinely carried out by Servicebio company.

**Q.** With CC(C)C[C@H](NC(=O)[C@H](Cc1ccc(O)cc1)NC(=O)[C@@H](N)[C@@H](C)O)C(=O)N[C@@H](CS)C(=O)N[C@H](C(=O)N[C@@H](C)C(=O)N[C@@H](CS)C(=O)N[C@@H](CC(=O)O)C(=O)N[C@@H](Cc1ccc(O)cc1)C(=O)N[C@H](C(=O)N[C@@H](Cc1c[nH]cn1)C(=O)N[C@@H](Cc1c[nH]cn1)C(=O)O)[C@@H](C)O)[C@@H](C)O [CY12-RP2] (H-TYLCTACDYTHH-OH; N-terminus and C-terminus assumed) as the molecule, how does the colony formation (A375 cells [1]) read?
**A.** Its colony formation is “significantly suppress the colony formation of A375 cells in a dose-dependent manner”.

**Q.** What about the relative spheroid diameter (A375 cellular spheroid) of the same molecule?
**A.** Its relative spheroid diameter is “significantly diminished with increasing CY12-RP2 concentration”.

**Q.** What about the apoptosis rate (A375 cells [2]) of the same molecule?
**A.** Its apoptosis rate is “significantly up-regulated by CY12-RP2 in a dose-dependent manner”.

**Q.** And the “plasma IFN-γ” value [3]?
**A.** The value was “significantly elevated”.

**Q.** What about the “plasma IL-1β” value [3] of the same molecule?
**A.** The value was “significantly elevated”.

**Q.** What about the “plasma IL-2” value [3] of the same molecule?
**A.** Its value is “reduced”.

**Q.** What about the “plasma IL-10” value [3] of the same molecule?
**A.** Its value is “reduced”.

**Q.** What about the “plasma TGF-β” value [3] of the same molecule?
**A.** The value was “reduced”.

**Q.** And the “plasma TNF-α” value [3]?
**A.** The value was “significantly elevated”.

**Q.** What about the invasion (A375 cells [4]) of the same molecule?
**A.** The invasion was “significantly suppressed the invasion of A375 cells in a dose-dependent manner”.

**Q.** And the “toxic effect on organs (overall)” value [5]?
**A.** Its value is “slightly toxic effect”.
